Test results from USRE47404E1, “Viral hepatitis treatment” (priority 2006, dated 2019).
Read-outs that look alike come from different tables or passages of the source.

Assays:
[1] = system: HCV replication in AVA5 replicon cell line (subgenomic construct of genotype 1b); assay: microbe, parasite or virus in culture; conditions: for S.I. = CC50/EC50: AVA5 cell cultures (Table 2)
Description: (§1) Antiviral activity of nitazoxanide, tizoxanide, interferon α, ribavirin and 2′-C-methyl cytidine was assessed in five different HCV replicon cell lines: (1) AVA5, a subgenomic construct of genotype 1b (Blight et al., 2000, Science 290:1972-1974); (2) H/FL-Neo, a genotype 1a full length construct (Blight et al., 2003, Journal of Virology 77:3181-3190); (3) JWT, a subgenomic construct of genotype 1b (Pfeiffer and Kirkegaard, 2005, Journal of Virology, 79:2346-2355); (4) 4-3-10, a subgenomic construct of genotype 1b, developed by a protocol that involved serial passage of JWT cells in 100 μM for one month followed by 400 μM ribavirin for two weeks (Pfeiffer and Kirkegaard, 2005, Journal of Virology, 79:2346-2355); and (5) RP7, a subgenomic construct of genotype 1b (Elazar et al., 2003, Journal of Virology 77:6055-6061).
(§2) Antiviral activity for each test compound was determined as previously described (Okuse et al., 2005, Antiviral Research 65:23-34). Briefly, replicon cell lines were maintained as sub-confluent cultures on 96-well plates. Compounds were added daily for three days in fresh medium. Twenty-four hours after the last dose of compound, antiviral activity was determined by blot hybridization analysis of intracellular HCV RNA, and cytotoxicity was assessed by neutral red dye uptake. EC50, EC90, CC50 and selectivity index were calculated for each compound tested in a replicon cell line. […] Selectivity index=CC50 divided by EC50. EC50, EC90 and CC50 values (±standard deviations [S.D.]) were calculated by linear regression analysis using data combined from all treated cultures.
(§3) Nitazoxanide and tizoxanide were provided by Romark Laboratories, L.C. (Tampa, Fla. USA). […] Ribavirin was purchased from Sigma-Aldrich (St. Louis, Mo. USA). 2′-C-methyl cytidine (Pierra, et al. 2005, Nucleosides Nucleotides Nucleic Acids, 24:767-770) was purchased from Moraveck Biochemicals, Inc. (La Brea, Calif. USA). […] Ribavirin, nitazoxanide, tizoxanide and 2′-C-methyl cytidine were solubilized in 100% tissue culture grade DMSO (Sigma). […] Daily aliquots of test compounds were made from the stock solutions in individual tubes and stored at the appropriate temperatures. On each day of treatment, daily aliquots of the test compounds were suspended into culture medium at room temperature, and immediately added to the cell cultures, thereby subjecting each aliquot of test compound to the same, limited, number of freeze-thaw cycles.
Analyses of interactions between compounds used in combination treatments were performed using Calcusyn™ software (Biosoft, Cambridge, UK).

[2] = system: HCV replication in 4-3-10 replicon cell line (subgenomic genotype 1b, JWT cells passaged in ribavirin); assay: microbe, parasite or virus in culture; format: cell-based, hepatitis C virus
Description: as §1, §2, §3

[3] = system: HCV replication in H/FL-Neo replicon cell line (genotype 1a full length construct); assay: microbe, parasite or virus in culture; format: cell-based, hepatitis C virus
Description: as §1, §2, §3

[4] = system: HCV replication in JWT replicon cell line (subgenomic construct of genotype 1b); assay: microbe, parasite or virus in culture; format: cell-based, hepatitis C virus
Description: as §1, §2, §3

[5] = system: HCV replication in RP7 replicon cell line (subgenomic construct of genotype 1b); assay: microbe, parasite or virus in culture; format: cell-based, hepatitis C virus
Description: as §1, §2, §3
To evaluate the effect of interferon alpha following pre-treatment with nitazoxanide or tizoxanide, a parental replicon-containing cell line (RP-7) was serially passaged in increasing concentrations of nitazoxanide or tizoxanide. Anti-HCV activity of interferon alpha-2b was determined using the parental cell line and using the cell lines obtained after passage in nitazoxanide or tizoxanide. Anti-HCV activity was determined by the methods described above.
(§4) The parental replicon-containing cell line was established by electroporation of RNA transcribed in vitro off of the Sca-I-linearized Bart 79I plasmid into Huh-7 cells (Elazar et al., 2003). Bart79I encodes for a second-generation high-efficiency bi-cistronic sub-genomic replicon of genotype 1b containing a single adaptive mutation (S1179I) in the NS5A gene, and the neomycinphosphotransferase gene in the first cistron. The electroporated cells were plated along with naïve Huh-7 feeder cells and grown in medium—DMEM (4.5 g/l glucose, L-glutamine and sodium pyruvate—Mediatech 10-013-CV), 10% fetal bovine serum, 1% Penicillin-streptomycin, 1% L-glutamine (final concentration 2 mM), 1×MEM Non-Essential Amino Acids (100×) (Invitrogen)—and 1 mg/ml G418. […] One of the resulting colonies was isolated, expanded, passaged in 700 μg/ml G418, and termed RP-7.

[6] = Cytotoxicity, neutral red dye uptake, AVA5; format: cell-based; conditions: human
Description: (§6) Briefly, replicon cell lines were maintained as sub-confluent cultures on 96-well plates. Compounds were added daily for three days in fresh medium. Twenty-four hours after the last dose of compound, antiviral activity was determined by blot hybridization analysis of intracellular HCV RNA, and cytotoxicity was assessed by neutral red dye uptake. EC50, EC90, CC50 and selectivity index were calculated for each compound tested in a replicon cell line. EC50=drug concentration producing a 50% reduction of intracellular HCV RNA relative to the average levels in untreated cultures. EC90=drug concentration producing a 90% reduction of intracellular HCV RNA relative to the average levels in untreated cultures. CC50=drug concentration producing a 50% reduction of neutral red dye uptake relative to the average levels in untreated cultures. Selectivity index=CC50 divided by EC50. EC50, EC90 and CC50 values (±standard deviations [S.D.]) were calculated by linear regression analysis using data combined from all treated cultures.

[7] = Cytotoxicity, neutral red dye uptake, H/FL-Neo; format: cell-based; conditions: human
Description: as §6

[8] = Cytotoxicity, neutral red dye uptake, JWT; format: cell-based; conditions: human
From the text: (§5) Selectivity index=CC50 divided by EC50.

[9] = Cytotoxicity, neutral red dye uptake, 4-3-10; format: cell-based; conditions: human
From the text: as §5

[10] = Cytotoxicity, neutral red dye uptake, RP7; format: cell-based; conditions: human
Description: as §5, §4

[11] = system: HCV replication in five HCV genotype 1-derived replicon cell lines; assay: Median over the five HCV replicon cell lines; format: cell-based, hepatitis C virus; conditions: median of the replicon cell lines; for EC50 / EC90: Hepatitis C virus
Description: as §1, §2

HCV replication = assay: Effect of nitazoxanide pre-treatment and treatment duration (3 or 6 days) on antiviral activity in replicon cultures; format: cell-based, hepatitis C virus; conditions: for EC50, IFNα-2b / EC90, IFNα-2b: expressed as IFNα-2b concentration; for EC50 / EC90: Hepatitis C virus, expressed as NTZ concentration; for EC50: read-out: EC50, NTZ; for EC90: read-out: EC90, NTZ
Description: as §2, with “Compounds were added daily for three days in fresh medium.” left out
Antiviral activity and cytotoxicity was determined 24 hours after the end of each respective treatment as described previously.

[12] = system: HCV replication in RP7 cells passaged in nitazoxanide; assay: HCV replicon antiviral assay, RP7 cells passaged in nitazoxanide; format: cell-based, hepatitis C virus; conditions: cell lines passaged in nitazoxanide or tizoxanide
Description: as §2
To evaluate the effect of interferon alpha following pre-treatment with nitazoxanide or tizoxanide, a parental replicon-containing cell line (RP-7) was serially passaged in increasing concentrations of nitazoxanide or tizoxanide. Anti-HCV activity of interferon alpha-2b was determined using the parental cell line and using the cell lines obtained after passage in nitazoxanide or tizoxanide. Anti-HCV activity was determined by the methods described above. […]

[13] = Hepatitis C virus, GETYPE1B, Ava5, AVA5 cell cultures, mono and combination treatments (Table 2)
[14] = Hepatitis C virus, read-out: EC50
[15] = Hepatitis C virus, read-out: EC90
[16] = AVA5 cell cultures, mono and combination treatments (Table 2)
[17] = AVA5 (Table 2), values for IFNα-2b expressed in IU/mL
[18] = 4-3-10, interferon α-2b in IU/ml

## O=C(Nc1ncc([N+](=O)[O-])s1)c1ccccc1O [Tizoxanide, tizoxanide]
[1]; AVA5
  S.I. (Selectivity Index) = CC50/EC50: 208
[1]
  S.I. = CC50/EC50: 100
[1]; Hepatitis C virus, Ava5, 72 h
  EC50: 120 ± 10 nM
[1]; Hepatitis C virus, Ava5, AVA5
  EC90: 770 ± 100 nM
[1]; [13]
  EC90: 810 ± 920 nM
[2]; 4-3-10
  S.I. (Selectivity Index) = CC50/EC50: 191
[2]; Hepatitis C virus
  EC50: 110 ± 50 nM
  EC90: 550 ± 80 nM
[3]
  S.I. (Selectivity Index) = CC50/EC50: 17
[3]; [14]
  EC50: 250 ± 30 nM
[3]; [15]
  EC90: 1000 ± 100 nM
[4]
  S.I. (Selectivity Index) = CC50/EC50: 150
[4]; [14]
  EC50: 160 ± 20 nM
[4]; [15]
  EC90: 760 ± 30 nM
[5]
  S.I. (Selectivity Index) = CC50/EC50: 167
[5]; [14]
  EC50: 150 ± 10 nM
[5]; [15]
  EC90: 940 ± 100 nM
[6]; AVA5
  CC50 at 3 days: 25000 ± 2800 nM
[6]; [16]
  CC50 at 3 days: 15000 ± 1200 nM
[7]
  CC50 at 3 days: 4200 ± 200 nM
[8]; JWT, read-out: CC50
  CC50 at 3 days: 24000 ± 2900 nM
[9]
  CC50 at 3 days: 21000 ± 1100 nM
[10]
  CC50 at 3 days: 25000 ± 1000 nM
[11]
  EC50: 150 nM
  EC90: 770 nM

## NC(=O)c1ncn([C@@H]2O[C@H](CO)[C@@H](O)[C@H]2O)n1 [Ribavirin]
[1]; AVA5
  S.I. (Selectivity Index) = CC50/EC50: 1.2
[1]; Hepatitis C virus, Ava5, 72 h
  EC50: 70000 ± 500 nM
[1]; Hepatitis C virus, Ava5, AVA5
  EC90: 220000 ± 34000 nM
[4]
  S.I. (Selectivity Index) = CC50/EC50: 3.9
[4]; [14]
  EC50: 23000 ± 2200 nM
[4]; [15]
  EC90: 62000 ± 1700 nM
[5]
  S.I. (Selectivity Index) = CC50/EC50: 1.2
[5]; [14]
  EC50: 69000 ± 4400 nM
[5]; [15]
  EC90: 122000 ± 13000 nM
[6]; AVA5 HCV replicon cells
  CC50 at 3 days: 84000 ± 4700 nM
[8]
  CC50 at 3 days: 89000 ± 7500 nM
[10]
  CC50 at 3 days: 77000 ± 4900 nM
[11]
  EC50: 69000 nM
  EC90: 122000 nM

## Interferon α-2b
[1]; [17]
  EC50: 1.9 ± 0.22 IU/mL
  EC90: 8.9 ± 0.92 IU/mL
[1]; AVA5, interferon α-2b in IU/ml
  EC50: 1.5 ± 0.2 IU/ml
  EC90: 8.2 ± 0.8 IU/ml
[2]; [18]
  EC50: 0.86 ± 0.06 IU/ml
  EC90: 5.7 ± 0.4 IU/ml
[3]; interferon α-2b in IU/ml
  EC50: 2.1 ± 0.2 IU/ml
  EC90: 9.4 ± 0.9 IU/ml
[4]; interferon α-2b in IU/ml
  EC50: 0.77 ± 0.03 IU/ml
  EC90: 2.6 ± 0.2 IU/ml
[5]; interferon α-2b in IU/ml
  EC50: 0.41 ± 0.01 IU/ml
  EC90: 3.6 ± 0.2 IU/ml
[11]; interferon α-2b
  Median EC50: 0.86 IU/ml
  Median EC90: 5.7 IU/ml
HCV replication; duration 3 days
  EC50, IFNα-2b: 1.9 ± 0.3 IU/mL
  EC90, IFNα-2b: 8.3 ± 0.9 IU/mL
HCV replication; duration 6 days
  EC50, IFNα-2b: 1.7 ± 0.2 IU/mL
  EC90, IFNα-2b: 7.8 ± 0.8 IU/mL
[12]
  Resistance after serial passage of the parental cell line in nitazoxanide or tizoxanide: did not induce resistance

## CC(=O)Oc1ccccc1C(=O)Nc1ncc([N+](=O)[O-])s1 [Nitazoxanide, nitazoxanide]
[1]; AVA5
  S.I. (Selectivity Index) = CC50/EC50: 300
[1]
  S.I. = CC50/EC50: 181
[1]; Hepatitis C virus, Ava5, 72 h
  EC50: 130 ± 20 nM
[1]; Hepatitis C virus, Ava5, AVA5
  EC90: 1000 ± 200 nM
[1]; [13]
  EC90: 930 ± 110 nM
[2]; 4-3-10
  S.I. (Selectivity Index) = CC50/EC50: 340
[2]; Hepatitis C virus
  EC50: 100 ± 30 nM
  EC90: 870 ± 160 nM
[3]
  S.I. (Selectivity Index) = CC50/EC50: 149
[3]; [14]
  EC50: 330 ± 50 nM
[3]; [15]
  EC90: 1100 ± 100 nM
[4]
  S.I. (Selectivity Index) = CC50/EC50: 354
[4]; [14]
  EC50: 110 ± 10 nM
[4]; [15]
  EC90: 1000 ± 200 nM
[5]
  S.I. (Selectivity Index) = CC50/EC50: 238
[5]; [14]
  EC50: 160 ± 10 nM
[5]; [15]
  EC90: 1200 ± 100 nM
[6]; AVA5
  CC50 at 3 days: 39000 ± 3900 nM
[6]; [16]
  CC50 at 3 days: 38000 ± 1800 nM
[7]
  CC50 at 3 days: 49000 ± 1500 nM
[8]; JWT, read-out: CC50
  CC50 at 3 days: 39000 ± 1000 nM
[9]
  CC50 at 3 days: 34000 ± 400 nM
[10]
  CC50 at 3 days: 38000 ± 800 nM
[11]
  EC50: 130 nM
  EC90: 1000 nM
HCV replication; 72 h, duration 3 days
  EC50: 220 ± 30 nM
  EC90: 1000 ± 100 nM
HCV replication; 144 h, duration 6 days
  EC50: 200 ± 20 nM
  EC90: 920 ± 100 nM
